Test [1] deals with Epidermal growth factor receptor (Homo sapiens), P00533 [UNDEFINED MUTATION]. In words: Selectivity interaction (ProQinase) EUB0000171b EGFR. To be noted: at 1 µM.
Test [2] deals with Bromodomain-containing protein 3 (Homo sapiens) (UniProt Q15059). The test is described as follows: Selectivity interaction (Bromodomain panel (DSF asssay)) EUB0000270b BRD3.
For test [3], the target named is Histone-lysine N-methyltransferase PRDM9 (Homo sapiens) (UniProt Q9NQV7). Particulars: at 10 µM.
Test [4] addresses T1, Serine/threonine-protein kinase D3 (Homo sapiens) (UniProt O94806).
T1 sequence (whole entry): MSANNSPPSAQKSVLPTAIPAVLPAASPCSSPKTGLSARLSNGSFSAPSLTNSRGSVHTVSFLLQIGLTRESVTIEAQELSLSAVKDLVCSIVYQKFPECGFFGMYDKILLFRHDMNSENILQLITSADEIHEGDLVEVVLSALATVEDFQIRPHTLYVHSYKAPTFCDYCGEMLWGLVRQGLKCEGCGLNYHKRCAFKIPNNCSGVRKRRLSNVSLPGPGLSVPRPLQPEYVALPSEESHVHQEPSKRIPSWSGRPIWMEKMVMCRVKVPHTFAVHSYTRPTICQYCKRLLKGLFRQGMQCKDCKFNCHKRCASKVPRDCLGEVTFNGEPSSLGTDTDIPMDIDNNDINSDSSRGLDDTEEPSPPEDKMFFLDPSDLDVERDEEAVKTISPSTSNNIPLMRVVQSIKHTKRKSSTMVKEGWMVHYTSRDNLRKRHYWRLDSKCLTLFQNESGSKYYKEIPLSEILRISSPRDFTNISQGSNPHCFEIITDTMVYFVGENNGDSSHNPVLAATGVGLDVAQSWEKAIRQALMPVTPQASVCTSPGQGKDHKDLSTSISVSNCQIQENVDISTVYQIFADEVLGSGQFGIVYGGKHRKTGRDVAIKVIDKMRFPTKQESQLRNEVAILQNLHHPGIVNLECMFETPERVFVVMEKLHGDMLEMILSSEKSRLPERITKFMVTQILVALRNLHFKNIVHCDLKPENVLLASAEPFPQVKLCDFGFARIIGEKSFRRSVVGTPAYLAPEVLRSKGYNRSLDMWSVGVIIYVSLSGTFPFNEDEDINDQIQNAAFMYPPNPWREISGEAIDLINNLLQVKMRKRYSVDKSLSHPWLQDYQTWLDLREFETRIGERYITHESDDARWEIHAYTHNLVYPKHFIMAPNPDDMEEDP
In words: Selectivity interaction (ActivX KiNativ screen (kinase selectivity in THP-1 cell lysates)) EUB0000639a PRKD3. Particulars: lysate, at 0.01 µM. Format: subcellular.

The target of test [5] is Transient receptor potential cation channel subfamily M member 6 (Homo sapiens) (UniProt Q9BX84). In words: Selectivity interaction (KinomeScan (DiscoverX)) EUB0001619a TRPM6. Particulars: at 1 µM.
Test [6] addresses T2, Mitogen-activated protein kinase kinase kinase 5 (Homo sapiens) (UniProt Q99683).
T2 sequence (whole entry): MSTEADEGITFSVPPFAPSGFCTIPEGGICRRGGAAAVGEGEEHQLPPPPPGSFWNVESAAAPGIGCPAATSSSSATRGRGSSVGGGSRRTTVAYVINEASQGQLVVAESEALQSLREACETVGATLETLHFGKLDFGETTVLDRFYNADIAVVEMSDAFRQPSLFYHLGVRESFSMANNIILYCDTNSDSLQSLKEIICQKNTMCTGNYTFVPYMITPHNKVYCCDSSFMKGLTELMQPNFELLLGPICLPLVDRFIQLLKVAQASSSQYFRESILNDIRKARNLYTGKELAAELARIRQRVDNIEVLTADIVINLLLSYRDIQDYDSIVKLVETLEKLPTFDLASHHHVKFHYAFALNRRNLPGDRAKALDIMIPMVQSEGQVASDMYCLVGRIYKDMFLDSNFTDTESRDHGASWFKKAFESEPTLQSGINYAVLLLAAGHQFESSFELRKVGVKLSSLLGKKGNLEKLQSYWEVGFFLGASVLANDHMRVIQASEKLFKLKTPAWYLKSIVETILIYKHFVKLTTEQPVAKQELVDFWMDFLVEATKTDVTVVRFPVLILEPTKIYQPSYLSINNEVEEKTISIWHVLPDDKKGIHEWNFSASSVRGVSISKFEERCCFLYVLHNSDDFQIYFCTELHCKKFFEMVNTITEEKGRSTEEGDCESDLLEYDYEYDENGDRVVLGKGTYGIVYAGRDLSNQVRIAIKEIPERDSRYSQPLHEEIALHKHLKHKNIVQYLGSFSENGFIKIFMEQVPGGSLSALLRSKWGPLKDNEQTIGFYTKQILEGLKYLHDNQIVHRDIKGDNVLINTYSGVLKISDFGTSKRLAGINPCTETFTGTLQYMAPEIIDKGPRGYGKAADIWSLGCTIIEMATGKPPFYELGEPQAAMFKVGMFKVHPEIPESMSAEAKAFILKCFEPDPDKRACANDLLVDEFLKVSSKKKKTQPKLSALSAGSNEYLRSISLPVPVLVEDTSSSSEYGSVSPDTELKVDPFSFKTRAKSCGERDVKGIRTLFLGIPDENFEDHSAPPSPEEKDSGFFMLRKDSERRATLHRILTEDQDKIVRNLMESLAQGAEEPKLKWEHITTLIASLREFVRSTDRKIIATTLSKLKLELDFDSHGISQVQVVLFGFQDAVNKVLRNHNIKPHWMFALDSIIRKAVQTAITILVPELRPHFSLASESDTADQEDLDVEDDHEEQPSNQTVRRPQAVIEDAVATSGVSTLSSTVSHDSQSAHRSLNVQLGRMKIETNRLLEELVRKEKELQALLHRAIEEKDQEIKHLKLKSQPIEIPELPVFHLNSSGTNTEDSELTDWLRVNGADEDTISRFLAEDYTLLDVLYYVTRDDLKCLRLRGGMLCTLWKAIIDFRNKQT
The test is described as follows: Selectivity interaction (KinomeScan (DiscoverX)) EUB0000618a MAP3K5. Particulars: at 10 µM.

Chain of Bromodomain-containing protein 3 (Homo sapiens) (Q15059 2-726 limits assumed): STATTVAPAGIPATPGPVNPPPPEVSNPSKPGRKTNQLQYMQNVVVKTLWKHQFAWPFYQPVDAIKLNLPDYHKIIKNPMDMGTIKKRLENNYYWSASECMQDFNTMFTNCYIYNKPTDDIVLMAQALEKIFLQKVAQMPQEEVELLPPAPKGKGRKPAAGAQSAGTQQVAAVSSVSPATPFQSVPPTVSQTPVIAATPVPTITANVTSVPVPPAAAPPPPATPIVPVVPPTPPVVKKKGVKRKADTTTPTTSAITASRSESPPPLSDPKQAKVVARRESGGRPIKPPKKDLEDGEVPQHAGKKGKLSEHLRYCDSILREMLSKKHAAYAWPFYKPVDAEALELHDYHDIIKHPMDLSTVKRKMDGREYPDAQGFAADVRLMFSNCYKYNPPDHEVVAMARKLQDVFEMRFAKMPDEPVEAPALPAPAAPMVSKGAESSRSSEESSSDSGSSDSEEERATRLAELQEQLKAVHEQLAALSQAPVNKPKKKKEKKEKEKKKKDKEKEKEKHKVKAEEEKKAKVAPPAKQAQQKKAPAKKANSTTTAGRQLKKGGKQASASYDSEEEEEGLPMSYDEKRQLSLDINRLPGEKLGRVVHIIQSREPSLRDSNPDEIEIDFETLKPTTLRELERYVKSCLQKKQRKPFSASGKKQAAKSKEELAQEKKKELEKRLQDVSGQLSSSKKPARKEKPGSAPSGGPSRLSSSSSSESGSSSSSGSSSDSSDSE
Chain of Epidermal growth factor receptor (Homo sapiens), P00533 [UNDEFINED MUTATION] (P00533 whole entry, looked up, change not shown): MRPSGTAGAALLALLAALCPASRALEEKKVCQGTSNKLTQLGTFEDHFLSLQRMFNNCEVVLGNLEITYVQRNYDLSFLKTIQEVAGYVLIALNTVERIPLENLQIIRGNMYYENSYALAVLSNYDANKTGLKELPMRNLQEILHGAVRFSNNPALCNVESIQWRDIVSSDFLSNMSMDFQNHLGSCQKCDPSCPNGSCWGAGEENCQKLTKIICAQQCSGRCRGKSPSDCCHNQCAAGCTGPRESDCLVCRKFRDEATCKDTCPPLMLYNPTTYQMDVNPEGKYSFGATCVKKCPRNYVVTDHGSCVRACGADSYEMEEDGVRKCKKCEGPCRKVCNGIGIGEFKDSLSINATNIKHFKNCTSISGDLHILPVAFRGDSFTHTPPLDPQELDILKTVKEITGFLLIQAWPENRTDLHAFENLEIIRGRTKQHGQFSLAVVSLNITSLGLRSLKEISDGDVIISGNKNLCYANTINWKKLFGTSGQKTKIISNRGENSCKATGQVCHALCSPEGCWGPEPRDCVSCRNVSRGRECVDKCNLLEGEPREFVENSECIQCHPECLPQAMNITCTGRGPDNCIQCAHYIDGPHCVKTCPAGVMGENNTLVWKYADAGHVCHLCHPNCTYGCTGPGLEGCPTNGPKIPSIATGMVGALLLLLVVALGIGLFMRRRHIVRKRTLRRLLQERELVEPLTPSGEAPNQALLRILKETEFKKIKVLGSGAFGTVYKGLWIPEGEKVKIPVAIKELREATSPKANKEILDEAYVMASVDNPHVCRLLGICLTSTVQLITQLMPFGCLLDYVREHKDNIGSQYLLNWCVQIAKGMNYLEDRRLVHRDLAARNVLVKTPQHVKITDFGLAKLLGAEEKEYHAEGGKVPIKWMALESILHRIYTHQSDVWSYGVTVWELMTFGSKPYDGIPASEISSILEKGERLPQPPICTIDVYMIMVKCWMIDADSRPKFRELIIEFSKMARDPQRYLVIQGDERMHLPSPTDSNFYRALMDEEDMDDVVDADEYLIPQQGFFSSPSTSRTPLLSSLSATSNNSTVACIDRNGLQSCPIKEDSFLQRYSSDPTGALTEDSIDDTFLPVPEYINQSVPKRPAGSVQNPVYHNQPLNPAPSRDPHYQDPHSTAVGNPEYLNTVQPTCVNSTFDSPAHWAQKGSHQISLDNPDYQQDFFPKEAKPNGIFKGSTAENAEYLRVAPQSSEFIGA
Chain of Transient receptor potential cation channel subfamily M member 6 (Homo sapiens) (Q9BX84 whole entry): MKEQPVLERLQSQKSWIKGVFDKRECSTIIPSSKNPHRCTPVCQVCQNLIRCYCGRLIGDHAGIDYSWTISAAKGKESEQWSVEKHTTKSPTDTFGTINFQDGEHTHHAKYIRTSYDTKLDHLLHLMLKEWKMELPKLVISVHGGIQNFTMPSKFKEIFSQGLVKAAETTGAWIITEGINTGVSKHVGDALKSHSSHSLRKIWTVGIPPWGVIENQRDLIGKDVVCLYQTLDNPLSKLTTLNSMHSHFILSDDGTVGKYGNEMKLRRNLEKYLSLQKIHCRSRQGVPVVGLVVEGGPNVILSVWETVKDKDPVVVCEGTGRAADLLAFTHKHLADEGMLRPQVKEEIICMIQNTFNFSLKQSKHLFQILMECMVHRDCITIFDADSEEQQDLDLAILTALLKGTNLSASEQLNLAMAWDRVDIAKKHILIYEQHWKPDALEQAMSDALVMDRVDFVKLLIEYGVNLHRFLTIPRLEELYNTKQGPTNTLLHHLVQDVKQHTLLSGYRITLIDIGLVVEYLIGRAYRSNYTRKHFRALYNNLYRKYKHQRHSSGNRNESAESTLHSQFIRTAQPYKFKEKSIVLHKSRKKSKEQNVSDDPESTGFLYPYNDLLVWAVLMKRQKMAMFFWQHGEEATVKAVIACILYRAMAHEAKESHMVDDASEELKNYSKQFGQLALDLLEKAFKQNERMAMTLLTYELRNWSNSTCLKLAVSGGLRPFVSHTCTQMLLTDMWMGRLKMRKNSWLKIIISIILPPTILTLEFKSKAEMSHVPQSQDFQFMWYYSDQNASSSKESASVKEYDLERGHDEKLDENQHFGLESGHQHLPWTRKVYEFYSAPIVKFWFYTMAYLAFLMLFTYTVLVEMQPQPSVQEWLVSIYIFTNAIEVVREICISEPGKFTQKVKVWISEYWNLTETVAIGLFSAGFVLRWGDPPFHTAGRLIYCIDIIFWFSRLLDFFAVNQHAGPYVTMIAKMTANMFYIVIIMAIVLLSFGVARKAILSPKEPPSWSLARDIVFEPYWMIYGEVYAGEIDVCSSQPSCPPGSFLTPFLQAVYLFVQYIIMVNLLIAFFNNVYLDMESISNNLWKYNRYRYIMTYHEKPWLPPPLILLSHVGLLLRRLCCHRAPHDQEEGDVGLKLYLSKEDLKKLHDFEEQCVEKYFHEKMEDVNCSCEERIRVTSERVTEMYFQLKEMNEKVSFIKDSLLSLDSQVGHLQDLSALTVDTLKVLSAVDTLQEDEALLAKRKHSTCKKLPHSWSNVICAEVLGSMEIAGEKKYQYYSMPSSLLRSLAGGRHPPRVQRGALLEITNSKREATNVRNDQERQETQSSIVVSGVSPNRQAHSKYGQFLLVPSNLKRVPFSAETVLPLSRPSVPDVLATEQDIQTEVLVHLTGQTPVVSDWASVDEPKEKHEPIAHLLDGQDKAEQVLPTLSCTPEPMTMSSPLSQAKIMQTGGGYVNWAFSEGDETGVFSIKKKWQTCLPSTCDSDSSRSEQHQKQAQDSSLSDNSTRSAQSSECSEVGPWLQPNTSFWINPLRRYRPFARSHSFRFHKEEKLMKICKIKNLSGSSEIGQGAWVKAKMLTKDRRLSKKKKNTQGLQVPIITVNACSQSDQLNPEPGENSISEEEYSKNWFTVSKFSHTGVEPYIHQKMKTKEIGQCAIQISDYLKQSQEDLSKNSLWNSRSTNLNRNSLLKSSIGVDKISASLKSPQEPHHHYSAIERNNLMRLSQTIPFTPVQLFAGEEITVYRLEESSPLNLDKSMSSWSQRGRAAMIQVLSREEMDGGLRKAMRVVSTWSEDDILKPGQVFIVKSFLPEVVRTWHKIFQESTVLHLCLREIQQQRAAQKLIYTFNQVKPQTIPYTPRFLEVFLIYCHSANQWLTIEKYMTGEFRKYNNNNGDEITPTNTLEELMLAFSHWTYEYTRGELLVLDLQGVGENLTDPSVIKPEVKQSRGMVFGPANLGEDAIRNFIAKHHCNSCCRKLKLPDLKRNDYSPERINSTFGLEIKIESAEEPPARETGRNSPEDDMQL
Chain of Histone-lysine N-methyltransferase PRDM9 (Homo sapiens) (Q9NQV7 whole entry): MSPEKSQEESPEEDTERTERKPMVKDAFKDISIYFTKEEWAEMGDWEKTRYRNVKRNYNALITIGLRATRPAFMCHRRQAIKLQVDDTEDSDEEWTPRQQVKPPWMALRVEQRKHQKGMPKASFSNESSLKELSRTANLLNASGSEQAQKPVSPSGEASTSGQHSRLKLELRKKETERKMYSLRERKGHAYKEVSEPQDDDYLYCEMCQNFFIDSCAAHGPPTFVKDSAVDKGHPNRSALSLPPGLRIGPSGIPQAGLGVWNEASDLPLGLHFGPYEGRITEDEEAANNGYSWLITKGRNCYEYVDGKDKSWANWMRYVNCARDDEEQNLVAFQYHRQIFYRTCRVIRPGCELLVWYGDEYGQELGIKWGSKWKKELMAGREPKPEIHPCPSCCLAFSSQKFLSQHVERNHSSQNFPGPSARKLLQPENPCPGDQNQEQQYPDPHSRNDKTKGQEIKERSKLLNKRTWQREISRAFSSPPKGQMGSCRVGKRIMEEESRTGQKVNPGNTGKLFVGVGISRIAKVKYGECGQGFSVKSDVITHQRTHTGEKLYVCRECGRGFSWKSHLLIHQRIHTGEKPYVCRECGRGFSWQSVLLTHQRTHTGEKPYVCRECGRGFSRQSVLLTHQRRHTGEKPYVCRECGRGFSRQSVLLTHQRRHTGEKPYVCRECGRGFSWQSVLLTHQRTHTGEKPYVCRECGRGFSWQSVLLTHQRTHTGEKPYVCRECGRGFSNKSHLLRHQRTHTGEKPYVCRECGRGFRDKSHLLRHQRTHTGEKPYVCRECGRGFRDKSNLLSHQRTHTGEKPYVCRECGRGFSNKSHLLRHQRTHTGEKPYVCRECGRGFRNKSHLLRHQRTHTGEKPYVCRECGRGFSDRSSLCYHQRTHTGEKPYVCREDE

For the compound `C=CC(=O)Nc1cccc(C(=O)Nc2ccc(Nc3cc(-c4[nH]c(SC)nc4C)ccn3)cc2)c1`, in test [1], the % of control is 88%.

In test [2], `Cc1cc(CN)cc(C)c1-c1ncn(C)c1-c1cncn1C` showed a dTM of -1.78 K.

As to `CNCCN1CCC(c2cc(CN(C)C(=O)c3cccc(Oc4ccccc4)c3)ccn2)CC1`, in test [3], the % activity is greater than 90%.

Consider `CC[C@@H]1[C@H](F)C(=O)N[C@@H]1COc1nccc2cc(C(N)=O)c(OC)cc12` [ZIMLOVISERTIB], for which the % of inhibition in test [4] amounted to 0%.

On to `N#Cc1cccc(-c2c[nH]c3ncnc(N4CCOCC4)c23)c1`, for which, in test [5], the % of control was 100%.

On to `O[C@H]1CC[C@H](Nc2ncc3nc(Nc4c(F)cc(F)cc4F)n([C@H]4CCOC4)c3n2)CC1`, for which the % of control in test [6] was 100%.

For the origin of these results see ChEMBL document CHEMBL5465560, “Selectivity Literature for EUbOPEN Chemogenomic Library” (2024).
